Tested on: Ca^2+ influx in Jurkat T cells
Experiment: Live cell Ca^2+ imaging (Fura-2) in Jurkat T cells
Type: cell-based, human
Conditions: 10 μM CPA, absence of extracellular Ca^2+, Fura-2
Experimental: Jurkat T cells were loaded with 4 μM Fura-2 AM (Life Technologies) for 60 min at 37 °C. Cells were then washed 3 times and incubated in Hank’s Balanced Salt Solution (HBSS) for 30 min at room temperature before use. Fluorescence at 340 nm and 380 nm excitation wavelengths was recorded on an inverted Nikon Ti-E microscope equipped with 340, 360 and 380 nm excitation filter wheels using NIS-Elements imaging software (Nikon Instruments Inc., Melville, NY, USA). Fura-2 ratios (F340/F380) reflect changes in [Ca^2+]i upon stimulation. Data were obtained from 100 to 250 cells in time-lapse images from each coverslip.
To test this hypothesis we performed live cell Ca^2+ imaging using the Ca^2+ indicator dye Fura-2 to determine the effect of Ktx-Sp2 on [Ca^2+]i in the presence of intracellular Ca^2+ store depletion by cyclopiazonic acid (CPA), an inhibitor of the sarcoplasmic reticulum Ca^2+-ATPase. […] When 2 mM Ca^2+ was added to the Ca^2+-free HBSS, we observed a large Ca^2+ influx into the cells. […] At 10 μM, Ktx-Sp2 decreased the F340/F380 ratio from 0.14 ± 0.02 to 0.05 ± 0.01 (n = 278) (Fig. 5b).

CC(=O)C1=C(O)[C@@H]2[C@H]3c4c[nH]c5cccc(c45)C[C@H]3C(C)(C)N2C1=O [CPA, cyclopiazonic acid, reference compound]
rise of [Ca^2+]i induced by CPA: relative small, transient rise of [Ca^2+]i

— article PMC6915869, “Immunosuppressive effects of a novel potassium channel toxin Ktx-Sp2 from Scorpiops Pocoki” (Cell & Bioscience, 2019)
